Data published in ChEMBL document CHEMBL5715935 (Int J Cancer, 2002).
Activity calls are given as the source filed them. The rule behind the calls is not given here.

How the values were obtained:
[1] = target: cAMP-dependent protein kinase (PKA) (Homo sapiens) (UniProt P22694+P17612+P22612); test: Inhibition of human PKA at 20 uM; format: protein assay
[2] = target: Protein kinase C (PKC) (Homo sapiens) (UniProt O94806+P41743+P17252+P05129+Q05655+P05771+Q05513+Q02156+P24723+Q15139+Q04759); test: Inhibition of human PKC at 20 uM; format: protein assay
[3] = target: Mitogen-activated protein kinase 14 (Homo sapiens) (UniProt Q16539); test: Inhibition of human SAPK2A using myelin as substrate at 20 uM in presence of gamma-32P-ATP by scintillation counter analysis
Mitogen-activated protein kinase 14 (Homo sapiens), sequence (Q16539 whole entry): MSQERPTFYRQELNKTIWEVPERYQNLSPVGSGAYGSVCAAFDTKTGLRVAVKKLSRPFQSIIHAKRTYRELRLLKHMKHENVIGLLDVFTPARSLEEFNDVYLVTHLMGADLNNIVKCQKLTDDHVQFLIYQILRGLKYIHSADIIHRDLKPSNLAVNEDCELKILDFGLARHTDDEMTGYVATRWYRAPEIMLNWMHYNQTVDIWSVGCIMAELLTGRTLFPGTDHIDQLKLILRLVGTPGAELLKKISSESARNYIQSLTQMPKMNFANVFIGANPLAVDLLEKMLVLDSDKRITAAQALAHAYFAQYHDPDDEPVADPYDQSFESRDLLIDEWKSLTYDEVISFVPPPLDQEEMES

[4] = system: A549; test: Cytotoxicity against p53 wild-type human A549 cells assessed as inhibition of cell proliferation incubated for 72 hrs by MTT assay; format: functional, cell-based; conditions: A549, 72 h
[5] = system: ChaGo-K-1; test: Cytotoxicity against human ChaGo-K-1 cells assessed as inhibition of cell proliferation incubated for 72 hrs by MTT assay; format: functional, cell-based; conditions: ChaGo-K-1, 72 h
[6] = system: NCI-H69; test: Cytotoxicity against p53 mutant human NCI-H69 cells assessed as inhibition of cell proliferation incubated for 72 hrs by MTT assay; format: functional, cell-based; conditions: NCI-H69, 72 h
[7] = system: NCI-H460; test: Cytotoxicity against p53 wild-type human NCI-H460 cells assessed as inhibition of cell proliferation incubated for 72 hrs by MTT assay; format: functional, cell-based; conditions: NCI-H460, 72 h
[8] = system: LoVo; test: Cytotoxicity against p53 wild-type human LoVo cells assessed as inhibition of cell proliferation incubated for 72 hrs by MTT assay; format: functional, cell-based
[9] = system: HCT-15; test: Cytotoxicity against p53 mutant human HCT-15 cells assessed as inhibition of cell proliferation incubated for 72 hrs by MTT assay; format: functional, cell-based; conditions: HCT-15, 72 h
[10] = system: HT-29; test: Cytotoxicity against p53 mutant human HT-29 cells assessed as inhibition of cell proliferation incubated for 72 hrs by MTT assay; format: functional, cell-based; conditions: HT-29, 72 h
[11] = system: A498; test: Cytotoxicity against p53 wild-type human A498 cells assessed as inhibition of cell proliferation incubated for 72 hrs by MTT assay; format: functional, cell-based; conditions: A498, 72 h
[12] = system: ACHN; test: Cytotoxicity against p53 wild-type human ACHN cells assessed as inhibition of cell proliferation incubated for 72 hrs by MTT assay; format: functional, cell-based
[13] = system: HT-1376; test: Cytotoxicity against p53 mutant human HT-1376 cells assessed as inhibition of cell proliferation incubated for 72 hrs by MTT assay; format: functional, cell-based; conditions: HT-1376, 72 h
[14] = system: MES-SA; test: Cytotoxicity against human MES-SA cells assessed as inhibition of cell proliferation incubated for 72 hrs by MTT assay; format: functional, cell-based
[15] = system: MES-SA/Dx5; test: Cytotoxicity against human MES-SA/Dx5 cells assessed as inhibition of cell proliferation incubated for 72 hrs by MTT assay; format: functional, cell-based; conditions: MES-SA/Dx5, 72 h
[16] = system: HepG2; test: Cytotoxicity against p53 wild-type human HepG2 cells assessed as inhibition of cell proliferation incubated for 72 hrs by MTT assay; format: functional, cell-based; conditions: HepG2, 72 h
[17] = system: DU-145; test: Cytotoxicity against p53 mutant human DU-145 cells assessed as inhibition of cell proliferation incubated for 72 hrs by MTT assay; format: functional, cell-based; conditions: DU-145, 72 h
[18] = system: MIA PaCa-2; test: Cytotoxicity against p53 mutant human MIA PaCa-2 cells assessed as inhibition of cell proliferation incubated for 72 hrs by MTT assay; format: functional, cell-based; conditions: MIA PaCa-2, 72 h
[19] = system: MIA PaCa-2; test: Cytotoxicity against human MIA PaCa-2 cells assessed as inhibition of cell proliferation incubated for 72 hrs by MTT assay; format: functional, cell-based; conditions: MIA PaCa-2, 72 h
[20] = system: MIA PaCa-2; test: Cytotoxicity against p53 wild-type human MIA PaCa-2 cells assessed as inhibition of cell proliferation incubated for 72 hrs by MTT assay; format: functional, cell-based; conditions: MIA PaCa-2, 72 h
[21] = Cytotoxicity against human HS27 cells assessed as inhibition of cell proliferation incubated for 72 hrs by MTT assay; format: toxicity, cell-based
[22] = Cytotoxicity against human IMR-90 cells assessed as inhibition of cell proliferation incubated for 72 hrs by MTT assay; format: toxicity, cell-based
[23] = system: LoVo; test: Induction of cell death in human LoVo cells assessed as accumulation of cells in the cell cycle at 20 uM incubated for 24 hrs by PI staining based flow cytometry analysis; format: functional
[24] = system: LoVo; test: Induction of cell death in human LoVo cells assessed as increase in the number of cells with a sub-G1 DNA content at 20 uM incubated for 24 hrs by PI staining based flow cytometry analysis; format: functional
[25] = system: LoVo; test: Induction of cell death in human LoVo cells assessed as sub-G1 phase of the cell cycle at 20 uM incubated for 24 hrs by TUNEL staining based flow cytometry analysis; format: functional
[26] = system: LoVo; test: Induction of cell death in human LoVo cells assessed as G1 phase of the cell cycle at 20 uM incubated for 24 hrs by TUNEL staining based flow cytometry analysis; format: functional
[27] = system: LoVo; test: Induction of cell death in human LoVo cells assessed as S phase of the cell cycle at 20 uM incubated for 24 hrs by TUNEL staining based flow cytometry analysis; format: functional
[28] = system: LoVo; test: Induction of cell death in human LoVo cells assessed as G2/M phase of the cell cycle at 20 uM incubated for 24 hrs by TUNEL staining based flow cytometry analysis; format: functional
[29] = system: LoVo; test: Induction of cell death in human LoVo cells assessed as total cell numbers at 20 uM incubated after 8 hrs by TUNEL staining based flow cytometry analysis; format: functional
[30] = system: LoVo; test: Induction of cell death in human LoVo cells assessed as increase in total cell numbers at 20 uM incubated upto 24 hrs by TUNEL staining based flow cytometry analysis; format: functional
[31] = system: LoVo; test: Induction of cell death in human LoVo cells assessed as decrease in total cell numbers at 20 uM incubated for 48 hrs by TUNEL staining based flow cytometry analysis; format: functional
[32] = system: LoVo; test: Antitumor activity against human Lovo cells xenografted CD1 nude mouse assessed as relative tumor volume at 100 mg/kg, ip administered 3 times per day at 8 hrs intervals for 5 days; format: functional; conditions: time 5 day
[33] = system: LoVo; test: Antitumor activity against human Lovo cells xenografted CD1 nude mouse assessed as reduction in tumor volume at 100 mg/kg, ip administered 3 times per day at 8 hrs intervals for 5 days relative to control; format: functional; design: scale not given: the % may be the effect or the level left; conditions: time 5 day
[34] = system: LoVo; test: Antitumor activity against human Lovo cells xenografted CD1 nude mouse assessed as low tumor volume at 100 mg/kg, ip administered 3 times per day at 8 hrs intervals for 16 days; format: functional, organism-based; conditions: time 16.0 day
[35] = system: LoVo; test: Antitumor activity against human Lovo cells xenografted CD1 nude mouse assessed as low tumor volume at 100 mg/kg, ip administered 3 times per day at 8 hrs intervals for 19 days; format: functional, organism-based; conditions: time 19.0 day
[36] = system: LoVo; test: Antitumor activity against human Lovo cells xenografted CD1 nude mouse assessed as low tumor volume at 100 mg/kg, ip administered 3 times per day at 8 hrs intervals for 24 days; format: functional, organism-based; conditions: time 24.0 day
[37] = system: LoVo; test: Antitumor activity against human Lovo cells xenografted CD1 nude mouse assessed as low tumor volume at 100 mg/kg, ip administered 3 times per day at 8 hrs intervals for 32 days; format: functional, organism-based; conditions: time 32.0 day
[38] = system: LoVo; test: Antitumor activity against human Lovo cells xenografted CD1 nude mouse assessed as T/C ratio at 100 mg/kg, ip administered 3 times per day at 8 hrs intervals for 5 days relative to control; format: functional; conditions: time 5 day
[39] = system: LoVo; test: Antitumor activity against human Lovo cells xenografted CD1 nude mouse assessed as time for tumor growth delay at 100 mg/kg, ip administered 3 times per day at 8 hrs intervals for 5 days; format: functional; conditions: time 5 day
[40] = system: MES-SA/Dx5; test: Antitumor activity against human MES-SA/Dx5 cells xenografted CD1 nude mouse assessed as tumor volume at 500 mg/kg, po administered 3 times per day at 8 hrs intervals and measured on 4 day; format: functional, organism-based
[41] = system: MES-SA/Dx5; test: Antitumor activity against human MES-SA/Dx5 cells xenografted CD1 nude mouse assessed as T/C ratio at 500 mg/kg, po administered 3 times per day at 8 hrs intervals and measured at 11 day relative to control; format: functional
[42] = system: MES-SA/Dx5; test: Antitumor activity against human MES-SA/Dx5 cells xenografted CD1 nude mouse assessed as time for tumor growth delay at 500 mg/kg, po administered 3 times per day at 8 hrs intervals for 4 days; format: functional; conditions: time 4 day
[43] = system: MES-SA/Dx5; test: Antitumor activity against human MES-SA/Dx5 cells xenografted CD1 nude mouse assessed as tumor volume at 500 mg/kg, po administered 3 times per day at 8 hrs intervals and measured on 7 day; format: functional, organism-based
[44] = system: MES-SA/Dx5; test: Antitumor activity against human MES-SA/Dx5 cells xenografted CD1 nude mouse assessed as tumor volume at 500 mg/kg, po administered 3 times per day at 8 hrs intervals and measured on 11 day; format: functional, organism-based
[45] = system: MES-SA/Dx5; test: Antitumor activity against human MES-SA/Dx5 cells xenografted CD1 nude mouse assessed as time for tumor growth delay at 200 mg/kg, po administered 3 times per day at 8 hrs intervals for 10 days; format: functional; conditions: time 10 day
[46] = system: MES-SA/Dx5; test: Antitumor activity against human MES-SA/Dx5 cells xenografted CD1 nude mouse assessed as T/C ratio at 200 mg/kg, po administered 3 times per day at 8 hrs intervals for 10 days and measured at day 11 relative to control; format: functional; conditions: time 11 day
[47] = system: MES-SA/Dx5; test: Antitumor activity against human MES-SA/Dx5 cells xenografted CD1 nude mouse assessed as reduction in tumor volume at 200 mg/kg, po administered 3 times per day at 8 hrs intervals and measured upto 16 days; format: functional, organism-based; conditions: time <= 16.0 day
[48] = system: HCT-116; test: cells; conditions: Homo sapiens, HCT-116, 72 h

With `CC[C@H](CO)Nc1nc(NCc2ccccc2)c2ncn(C(C)C)c2n1` [SELICICLIB] the inhibition [1] was “inactive”, the inhibition [2] was “inactive” and the inhibition [3] was “inactive”. The IC50 [4] was 15.9 µM, the IC50 [5] was 30.2 µM and the IC50 [6] was 26 µM. It also gave an IC50 [7] of 13.1 µM, an IC50 [8] of 9.3 µM and an IC50 [9] of 18.3 µM. For the same compound, the IC50 [10] was 14.6 µM, the IC50 [11] was 13.2 µM and the IC50 [12] was 11.9 µM. For the same compound, the IC50 [13] was 18.4 µM, the IC50 [14] was 11.9 µM and the IC50 [15] was 7.9 µM. For the same compound, the IC50 [16] was 11.3 µM, the IC50 [17] was 18.8 µM and the IC50 [18] was 13.9 µM. It also gave an IC50 [19] of 15.2 µM, an IC50 [20] of 12 µM and an IC50 at 72 h [21] of 22.2 µM. The IC50 at 72 h [22] was over 100 µM, the Activity [23] was “inactive” and the Activity [24] was “Active”. For the same compound, the Activity [25] was “Active”, the Activity [26] was “Active” and the Activity [27] was “Active”. The Activity [28] was “Active”, the Activity [29] was “Active” and the Activity [30] was “Active”. For the same compound, the Activity [31] was “Active”, the Activity [32] was 4.8 and the Activity [33] was 44.8%. For the same compound, the Activity [34] was “Active”, the Activity [35] was “Active” and the Activity [36] was “Active”. The Activity [37] was “Active”, the T/C [38] was 58.3% and the Time [39] was 1.4 days. For the same compound, the Activity [40] was “Active”, the T/C [41] was 47.3% and the Time [42] was 1.7 days. The Activity [43] was “Active”, the Activity [44] was “Active” and the Time [45] was 1.3 days. For the same compound, the Activity [46] was 85.7%, the Activity [47] was “inactive” and the IC50 [48] was 10.7 µM.
